Bounds are passed on as bounds.

IC50 data for eight molecules are collected here from patent US20230117470A1, “SUBSTITUTED PYRAZOLE COMPOUNDS AS TOLL RECEPTOR INHIBITORS” (BRISTOL-MYERS SQUIBB COMPANY, priority 2019, published 2023).

Holding throughout (format): cell-based
The target in one assay is T1, human TLR7 (Homo sapiens, UniProt Q9NYK1).
T1 construct: host or cells: HEK-Blue cells
T1 sequence (Q9NYK1 27-1049): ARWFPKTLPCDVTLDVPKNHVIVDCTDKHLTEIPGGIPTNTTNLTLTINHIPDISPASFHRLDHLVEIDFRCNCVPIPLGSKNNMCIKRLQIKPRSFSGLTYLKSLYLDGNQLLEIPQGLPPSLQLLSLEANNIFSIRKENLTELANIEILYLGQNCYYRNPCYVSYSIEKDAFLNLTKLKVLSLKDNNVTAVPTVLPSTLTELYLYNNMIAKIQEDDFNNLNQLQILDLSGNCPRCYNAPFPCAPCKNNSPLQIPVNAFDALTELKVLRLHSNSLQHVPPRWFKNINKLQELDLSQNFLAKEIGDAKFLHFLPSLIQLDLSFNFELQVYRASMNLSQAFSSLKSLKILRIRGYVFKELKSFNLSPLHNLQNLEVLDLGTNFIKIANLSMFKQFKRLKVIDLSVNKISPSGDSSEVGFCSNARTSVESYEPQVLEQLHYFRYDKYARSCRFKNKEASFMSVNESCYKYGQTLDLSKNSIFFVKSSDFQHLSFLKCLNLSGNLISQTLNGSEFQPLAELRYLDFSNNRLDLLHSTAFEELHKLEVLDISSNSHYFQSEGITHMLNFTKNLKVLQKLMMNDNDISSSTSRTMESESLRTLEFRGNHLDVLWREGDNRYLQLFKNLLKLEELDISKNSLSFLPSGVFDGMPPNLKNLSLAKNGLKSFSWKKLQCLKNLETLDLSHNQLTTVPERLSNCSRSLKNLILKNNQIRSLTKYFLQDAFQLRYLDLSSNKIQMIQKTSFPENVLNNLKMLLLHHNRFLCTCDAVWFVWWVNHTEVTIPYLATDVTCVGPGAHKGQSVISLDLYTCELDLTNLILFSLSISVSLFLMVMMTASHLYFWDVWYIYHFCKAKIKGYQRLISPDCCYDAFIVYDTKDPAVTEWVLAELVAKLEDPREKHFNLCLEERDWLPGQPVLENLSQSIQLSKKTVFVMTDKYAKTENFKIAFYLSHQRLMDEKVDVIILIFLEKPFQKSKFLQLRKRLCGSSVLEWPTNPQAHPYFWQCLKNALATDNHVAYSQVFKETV
Put plainly: TLR7 inhibition reporter assay (HEK-Blue cells, SEAP reporter, gardiquimod stimulation). The note with it: HEK-Blue cells overexpressing human TLR7, SEAP reporter, gardiquimod 7.5 μM. An outline of the steps: (§1)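 Ligand levels differed by receptor: TLR7 got gardiquimod at 7.5 μM, TLR8 got R848 at 15.9 μM, and TLR9 got ODN2006 at 5 nM, each added after a 30-min room-temperature compound exposure. Incubation lasted 22 h at 37° C before colorimetric SEAP detection.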

A further assay addresses T2, human TLR8 (Homo sapiens, UniProt Q9NR97).
T2 construct: host or cells: HEK-Blue cells
T2 sequence (Q9NR97 27-1041): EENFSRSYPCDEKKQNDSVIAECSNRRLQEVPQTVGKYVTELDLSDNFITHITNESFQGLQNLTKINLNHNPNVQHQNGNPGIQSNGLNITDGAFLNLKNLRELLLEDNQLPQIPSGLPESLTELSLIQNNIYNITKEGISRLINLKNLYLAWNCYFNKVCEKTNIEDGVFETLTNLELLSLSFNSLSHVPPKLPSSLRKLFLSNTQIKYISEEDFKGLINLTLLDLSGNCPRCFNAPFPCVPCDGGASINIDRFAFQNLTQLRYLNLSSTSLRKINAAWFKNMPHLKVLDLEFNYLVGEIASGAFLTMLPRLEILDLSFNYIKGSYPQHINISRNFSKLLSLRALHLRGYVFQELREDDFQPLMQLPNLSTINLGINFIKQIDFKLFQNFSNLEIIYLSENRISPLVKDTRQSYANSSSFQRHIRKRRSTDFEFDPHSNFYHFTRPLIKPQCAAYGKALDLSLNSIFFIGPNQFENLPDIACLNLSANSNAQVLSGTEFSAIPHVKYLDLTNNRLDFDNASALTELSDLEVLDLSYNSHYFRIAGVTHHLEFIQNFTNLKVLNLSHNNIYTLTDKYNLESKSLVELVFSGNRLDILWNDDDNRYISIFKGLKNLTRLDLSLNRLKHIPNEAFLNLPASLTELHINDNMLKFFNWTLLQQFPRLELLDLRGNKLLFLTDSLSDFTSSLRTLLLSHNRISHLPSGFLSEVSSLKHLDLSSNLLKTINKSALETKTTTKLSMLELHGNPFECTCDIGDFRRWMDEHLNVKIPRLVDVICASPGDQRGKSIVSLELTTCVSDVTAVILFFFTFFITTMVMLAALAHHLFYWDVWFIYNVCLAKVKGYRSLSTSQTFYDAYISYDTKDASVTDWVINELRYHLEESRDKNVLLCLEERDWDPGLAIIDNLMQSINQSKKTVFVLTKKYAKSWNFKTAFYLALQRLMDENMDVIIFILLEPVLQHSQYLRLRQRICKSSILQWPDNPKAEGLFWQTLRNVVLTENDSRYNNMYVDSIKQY
Nature of the assay: TLR8 inhibition reporter assay (HEK-Blue cells, SEAP reporter, R848 stimulation). To be noted: HEK-Blue cells overexpressing human TLR8, SEAP reporter, R848 15.9 μM. An outline of the steps:
as §1

For a further assay, the target named is T3, human TLR9 (Homo sapiens, UniProt Q9NR96).
T3 construct: host or cells: HEK-Blue cells
T3 sequence (Q9NR96 26-1032): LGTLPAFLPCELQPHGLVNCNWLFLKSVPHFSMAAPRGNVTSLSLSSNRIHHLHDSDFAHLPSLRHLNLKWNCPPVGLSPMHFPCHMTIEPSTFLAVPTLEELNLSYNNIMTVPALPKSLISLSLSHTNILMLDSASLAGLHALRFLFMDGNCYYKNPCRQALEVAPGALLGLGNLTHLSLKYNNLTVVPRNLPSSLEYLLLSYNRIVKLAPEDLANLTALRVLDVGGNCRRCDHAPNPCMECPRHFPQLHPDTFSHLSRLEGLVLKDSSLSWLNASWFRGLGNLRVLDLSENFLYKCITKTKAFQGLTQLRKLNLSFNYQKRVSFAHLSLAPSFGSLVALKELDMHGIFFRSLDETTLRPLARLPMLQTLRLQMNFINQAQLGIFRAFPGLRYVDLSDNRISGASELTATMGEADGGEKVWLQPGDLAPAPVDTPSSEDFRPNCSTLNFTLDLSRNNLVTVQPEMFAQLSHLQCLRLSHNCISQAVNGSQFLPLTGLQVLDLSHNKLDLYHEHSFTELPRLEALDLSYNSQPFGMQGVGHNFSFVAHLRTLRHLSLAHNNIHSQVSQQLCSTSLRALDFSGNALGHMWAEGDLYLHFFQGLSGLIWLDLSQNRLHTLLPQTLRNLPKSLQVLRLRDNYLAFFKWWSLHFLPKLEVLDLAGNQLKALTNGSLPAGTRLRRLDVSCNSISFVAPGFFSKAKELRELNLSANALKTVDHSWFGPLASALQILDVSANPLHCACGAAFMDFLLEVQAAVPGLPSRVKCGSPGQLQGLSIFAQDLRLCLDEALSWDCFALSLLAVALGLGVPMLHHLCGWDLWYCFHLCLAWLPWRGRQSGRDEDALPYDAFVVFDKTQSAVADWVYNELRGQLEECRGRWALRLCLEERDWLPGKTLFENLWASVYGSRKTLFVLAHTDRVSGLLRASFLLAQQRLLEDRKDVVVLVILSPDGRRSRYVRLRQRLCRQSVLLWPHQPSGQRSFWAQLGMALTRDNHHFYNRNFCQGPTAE
Nature of the assay: TLR9 inhibition reporter assay (HEK-Blue cells, SEAP reporter, ODN2006 stimulation). To be noted: HEK-Blue cells overexpressing human TLR9, SEAP reporter, ODN2006 5 nM. An outline of the steps:
as §1

`Cc1cc(-c2[nH]nc(C(=O)NCC3CN(C)CCO3)c2C(C)C)cn2ncnc12` (stereo not drawn) [Example 134]: the IC50 against human TLR7 was 1.23 nM; against human TLR8, 1.28 nM; against human TLR9, 16100 nM.

As for `Cc1cc(-c2[nH]nc(C(=O)NC3CCC(O)CC3)c2C(C)C)cn2ncnc12` (stereo not drawn) [Example 32], the IC50 against human TLR7 is 3.41 nM; against human TLR8, 15.9 nM; on human TLR9, > 50000 nM.

As to `Cc1cc(-c2[nH]nc(C3CCC(NCC(F)F)CC3)c2C(C)C)cn2ncnc12` (single isomer, unassigned) [Example 279, N-(2,2-difluoroethyl)-4-(4-isopropyl-5-(8-methyl-[1,2,4]triazolo[1,5-a]pyridin-6-yl)-1H-pyrazol-3-yl)cyclohexan-1-amine], the results for the IC50 at human TLR7, against human TLR8 and at human TLR9 were 11 nM, 1.08 nM and 23900 nM, respectively.

Turning to `Cc1cc(-c2[nH]nc(-c3ccc(N)cc3)c2C(C)C)cn2ncnc12` [Example 233], the IC50 is 2.3 nM at human TLR7, 0.59 nM against human TLR8 and > 50000 nM on human TLR9.

Turning to `CCN1CCC(c2cnc(-c3n[nH]c(-c4cc(C)c5ncnn5c4)c3C(C)C)nc2)CC1` [Example 369], the IC50 is 18 nM at human TLR7, 33 nM against human TLR8 and 46900 nM against human TLR9.

`Cc1cc(-c2[nH]nc(C(=O)NCC3CN(CC(C)(C)O)CCO3)c2C(C)C)cn2ncnc12` (stereo not drawn) [Example 143]: the figures for the IC50 at human TLR7, against human TLR8 and on human TLR9 were 5.34 nM, 19.6 nM and 9280 nM, respectively.

In the case of `Cc1cc(-c2[nH]nc(C(=O)N[C@H]3CC[C@H](NCc4cccnc4)CC3)c2C(C)C)cn2ncnc12` [Example 112], the IC50 at human TLR7 is 11.4 nM; at human TLR8 it was 28.3 nM; against human TLR9, > 50000 nM.

Regarding `COc1cc(-c2[nH]nc(-c3ccc4c(c3)CCNC4)c2C(C)C)cn2ncnc12` [Example 234], the IC50 against human TLR7 was 15.1 nM; against human TLR8 it was 59.8 nM; against human TLR9 it was > 50000 nM.
